Like-named read-outs stand apart in the source and are kept apart here. Values belong to the molecule of their own block, whether it stands above or below them.
Key:
BxPC3 = assay: Cell proliferation assay, Alamar Blue, BxPC3; assay type: cell-based; settings: Homo sapiens, BXPC-3
Method: (§1) c. Plate 4,000-5,000 cells per well in 100 μl of medium and seed into a 96-well plate according to the following plate layout. Add cell culture medium only to wells B10 to B12. Wells B1 to B9 have cells but no compound added.
(§2) d. Add 100 μl of 2× drug dilution to each well in a concentration shown in the plate layout above. At the same time, add 100 μl of media into the control wells (wells B10 to B12). Total volume is 200 μl/well.
(§3) e. Incubate four (4) days at 37° C., 5% CO2 in a humidified incubator.
(§4) f. Add 20 μl Alamar Blue reagent to each well.
(§5) g. Incubate for four (4) hours at 37° C., 5% CO2 in a humidified incubator.
(§6) h. Record fluorescence at an excitation wavelength of 544 nm and emission wavelength of 590 nm using a microplate reader.
(§7) In the assays, cells are cultured with a test compound for approximately four days, the dye then is added to the cells and fluorescence of […] dye is detected after approximately four hours. Different types of cells can be utilized in the assays (e.g., HCT-116 human colorectal carcinoma cells, PC-3 human prostatic cancer cells and MiaPaca human pancreatic carcinoma cells). Anti-proliferative effects of representative compounds are provided hereafter.

PanC1 = assay: Cell proliferation assay, Alamar Blue, PanC1; assay type: cell-based; settings: Homo sapiens, PANC-1; Table 19b; read-out: IC50 PanC1
Method: (§8) A representative cell-proliferation assay protocol using Alamar Blue dye (stored at 4° C., use 20 ul per well) is described hereafter.
as §1, §2, §3, §4, §5, §6, §7

Jurkat = assay: Cell proliferation assay, Alamar Blue, Jurkat; assay type: cell-based; settings: Homo sapiens;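 note: cells exposed to compound for about 4 days at 37 °C, then Alamar Blue added and fluorescence read after about 4 h, controls given medium without drug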
[1] = test system: MiaPaca human pancreatic carcinoma cells; assay: Cell proliferation assay, Alamar Blue, MiaPaca; assay type: cell-based
Method: as §8, §1, §2, §3, §4, §5, §6, §7

[2] = test system: HCT-116 human colorectal carcinoma cells; assay: Cell proliferation assay, Alamar Blue, HCT-116; assay type: cell-based;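 note: cells exposed to compound for about 4 days, then Alamar Blue added and fluorescence read after about 4 h, medium-only wells as control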
[3] = Pharmacokinetics in ICR mice after IV and PO dose; assay type: in vivo
Hs578T = assay: Cell proliferation assay, Alamar Blue, Hs578T; assay type: cell-based; settings: Homo sapiens, Hs-578T
[4] = test system: PC-3 human prostatic cancer cells; assay: Cell proliferation assay, Alamar Blue, PC-3; assay type: cell-based
Method: as §8, §1, §2, §3, §4, §5, §6, §7

HT29 = assay: Cell proliferation assay, Alamar Blue, HT29; assay type: cell-based; settings: Homo sapiens, HT-29; Table 19b
Method: as §1, §2, §3, §4, §5, §6, §7

H1299 = assay: Cell proliferation assay, Alamar Blue, H1299; assay type: cell-based; settings: Homo sapiens, NCI-H1299
Method: as §1, §2, §3, §4, §5, §6, §7

A549 = assay: Cell proliferation assay, Alamar Blue, A549; assay type: cell-based; settings: Homo sapiens, Table 16
Method: as §1, §2, §3, §4, §5, §6, §7

[5] = HCT-116, Table 16, first HCT-116 column
[6] = HCT-116, Table 16, second HCT-116 column

IC50 (BxPC3; Table 19b): 2.59 µM | IC50 (PanC1): 2.6 µM
Compound: O=C(O)c1ccc2c(c1)nc(NC1CC1)c1nc(NC3CC3)ncc12 [drawing 1267]

IC50 (BxPC3; Table 19b): > 50 µM | IC50 (PanC1): > 50 µM
Compound: O=C(O)c1ccc2c(c1)nc(NCc1ccccc1)c1ccncc12 [drawing 1218]

IC50 (BxPC3; Table 19b): > 50 µM | IC50 (PanC1): > 50 µM
Compound: Cc1cc(Nc2ncc3c(n2)c(Nc2ccc(F)c(Cl)c2)nc2cc(C(=O)O)ccc23)[nH]n1 [drawing 1286]

IC50 (Jurkat; Table 18): 1.09 µM | IC50 ([1]; MIA PaCa-2, Table 18): 1.75 µM | IC50 ([2]; HCT-116, Table 18): > 10 µM
Compound: CNc1ncc2c(n1)c(Nc1cccc(Cl)c1)nc1cc(C(=O)O)ccc12

IC50 (Jurkat; Table 18): 8.82 µM | IC50 ([1]; MIA PaCa-2, Table 18): 14.7 µM | IC50 ([2]; HCT-116, Table 18): > 10 µM
Compound: O=C(O)c1ccc2c(c1)nc(NC1CC1)c1nc(NCc3ccccc3)ncc12 [drawing 1075]

IC50 (BxPC3; Table 19b): 22.3 µM | IC50 (PanC1): 19.1 µM
Compound: O=C(O)c1ccc2c(c1)nc(NCc1ccccc1)c1nc(NC3CC3)ncc12 [drawing 1277]

Compound: C#Cc1cccc(Nc2nc3cc(C(=O)O)ccc3c3cncnc23)c1 [drawing 1347]
Kel ([3]; PO, 24.5 mg/kg): 0.0594 h⁻¹ | AUC(0-inf) ([3]; mouse, plasma, IV, 3.4 mg/kg): 4900 ng·h/mL | AUC(0-t) ([3]; mouse, plasma, IV, 3.4 mg/kg): 4810 ng·h/mL | Cmax ([3]; mouse, plasma, IV, 3.4 mg/kg): 4740 ng/mL | Vd ([3]; mouse, plasma, IV, 3.4 mg/kg): 4.9 L/kg | AUC(0-inf) ([3]; mouse, plasma, PO, 24.5 mg/kg): 10900 ng·h/mL | AUC(0-t) ([3]; mouse, plasma, PO, 24.5 mg/kg): 9120 ng·h/mL | Cmax ([3]; mouse, plasma, PO, 24.5 mg/kg): 1600 ng/mL | Tmax ([3]; mouse, plasma, PO, 24.5 mg/kg): 30 min

IC50 (Jurkat; Table 18): 2.04 µM | IC50 ([1]; MIA PaCa-2, Table 18): 0.45 µM | IC50 ([2]; HCT-116, Table 18): > 10 µM
Compound: C#Cc1cccc(Nc2nc3cc(C(=O)O)ccc3c3cnc(NCC4CCCO4)nc23)c1 (stereo not drawn) [drawing 1063]

IC50 ([1]; MIA PaCa-2, Table 18): > 10 µM | IC50 ([2]; HCT-116, Table 18): > 10 µM | IC50 ([4]; Table 18, read-out: IC50 PC3): 5.25 µM
Compound: O=C(O)c1ccc2c(c1)nc(NCCCc1ccccc1)c1ccncc12 [drawing 1023]
IC50 (Hs578T; Table 18): 29.9 µM

IC50 (BxPC3; Table 19b): 24.3 µM | IC50 (HT29): 34 µM | IC50 (PanC1): 28.1 µM
Compound: O=C(O)c1ccc2c(c1)nc(NCCc1cccc(Cl)c1)c1ccncc12 [drawing 1219]

IC50 (BxPC3; Table 19b): 1.2 µM | IC50 (PanC1): 6.66 µM
Compound: C#Cc1cccc(Nc2nc3cc(C(=O)O)ccc3c3cnc(NCC4CCCO4)nc23)c1 (stereo not drawn) [drawing 1256]

IC50 (Jurkat; Table 18): 7.49 µM | IC50 ([1]; MIA PaCa-2, Table 18): 4.65 µM | IC50 ([2]; HCT-116, Table 18): > 10 µM
Compound: CCCNc1ncc2c(n1)c(NC1CC1)nc1cc(C(=O)O)ccc12 [drawing 1103]

IC50 (H1299; Table 16): 17.8 µM | IC50 (BxPC3; Table 16): 1.97 µM | IC50 (A549): 14.4 µM | IC50 (Jurkat; Table 16): 6.26 µM | IC50 [2, 5]: 5 µM | IC50 [2, 6]: 7.6 µM | IC50 ([4]; Table 16, read-out: IC50 PC3): 7.26 µM
Compound: c1ccc(Nc2nc3cc(-c4nnc[nH]4)ccc3c3sccc23)cc1
IC50 (Hs578T; Table 16): 5.5 µM

IC50 (BxPC3; Table 19b): 3.92 µM | IC50 (PanC1): 4.02 µM
Compound: O=C(O)c1ccc2c(c1)nc(NC1CC1)c1nc(Nc3ccccc3)ncc12 [drawing 1269]

IC50 (BxPC3; Table 19b): 10.9 µM | IC50 (PanC1): 25.8 µM
Compound: O=C(O)c1ccc2c(c1)nc(NC1CC1)c1nc(NCc3ccccc3)ncc12 [drawing 1268]

IC50 (Jurkat; Table 18): 2.86 µM | IC50 ([1]; MIA PaCa-2, Table 18): 3.16 µM
Compound: CC1CCCCN1CCCNc1ncc2c(n1)c(Nc1ccc(F)c(Cl)c1)nc1cc(C(=O)O)ccc12 (stereo not drawn) [drawing 1087]

IC50 (H1299; Table 18): 21 µM | IC50 ([1]; MIA PaCa-2, Table 18): 5.08 µM | IC50 ([2]; HCT-116, Table 18): > 10 µM | IC50 ([4]; Table 18, read-out: IC50 PC3): 23.6 µM
Compound: O=C(O)c1ccc2c(c1)nc(NCCc1ccccc1)c1ccncc12 [drawing 1007]
IC50 (Hs578T; Table 18): 16.5 µM

IC50 (H1299; Table 16): 11.7 µM | IC50 [2, 5]: > 10 µM | IC50 ([4]; Table 16, read-out: IC50 PC3): 20 µM
Compound: c1ccc(Nc2nc3cc(-c4nnn[nH]4)ccc3c3sccc23)cc1
IC50 (Hs578T; Table 16): 21.8 µM

IC50 (H1299; Table 16): 15.2 µM | IC50 (Jurkat; Table 16): 8.89 µM | IC50 ([1]; MIA PaCa-2, Table 16): > 10 µM | IC50 ([4]; Table 16, read-out: IC50 PC3): 12 µM
Compound: Clc1cccc(Nc2nc3cc(-c4nnn[nH]4)ccc3c3sccc23)c1
IC50 (Hs578T; Table 16): 5.23 µM

IC50 (BxPC3; Table 19b): 3.29 µM | IC50 (HT29): 31.3 µM | IC50 (PanC1): 28.2 µM
Compound: O=C(O)c1ccc2c(c1)nc(NCCc1cccc(F)c1)c1ccncc12 [drawing 1220]

IC50 (BxPC3; Table 19b): 38.1 µM | IC50 (PanC1): > 50 µM
Compound: O=C(O)c1ccc2c(c1)nc(Nc1cncc(C3CC3)c1)c1ccncc12

IC50 (Jurkat; Table 18): 3.67 µM | IC50 ([1]; MIA PaCa-2, Table 18): > 50 µM
Compound: O=C(O)c1ccc2c(c1)nc(N1CCOCC1)c1nc(NC3CC3)ncc12 [drawing 1085]

IC50 (BxPC3; Table 19b): 43.8 µM | IC50 (PanC1): > 50 µM
Compound: Nc1ncc2c(n1)c(NC1CC1)nc1cc(C(=O)O)ccc12 [drawing 1295]

IC50 (BxPC3; Table 19b): 23.4 µM | IC50 (HT29): 16.4 µM | IC50 (PanC1): 34.4 µM
Compound: O=C(O)c1ccc2c(c1)nc(NCCCc1ccccc1)c1ccncc12 [drawing 1221]

IC50 (H1299; Table 16): 4.39 µM | IC50 (Jurkat; Table 16): 6.12 µM | IC50 ([1]; MIA PaCa-2, Table 16): > 10 µM | IC50 [2, 5]: > 10 µM | IC50 [2, 6]: > 10 µM | IC50 ([4]; Table 16, read-out: IC50 PC3): 9.09 µM
Compound: O=C(O)c1ccc2c(c1)nc(Nc1ccccc1)c1ccsc12
IC50 (Hs578T; Table 16): 6.38 µM

IC50 (BxPC3; Table 19b): > 50 µM | IC50 (PanC1): > 50 µM
Compound: O=C(O)c1ccc2c(c1)nc(N1CCOCC1)c1nc(NC3CC3)ncc12 [drawing 1278]
